Data: patent US12692264B2, “Pyrimidine or pyridine derivative, preparation method therefor, and application thereof in pharmacy” (ABBISKO THERAPEUTICS CO., LTD., priority 2021, dated 2026)

How the values were obtained:
Assay type in all cases: cell-based
[1] = molecular target: Ba/F3 EGFR-D770-N771ins_SVD (Homo sapiens, UniProt P00533, DUP768-770, cells depend on it); assay: Cell proliferation study (CellTiter-Glo, 72 hrs), Ba/F3 EGFR-D770-N771ins_SVD; details: CTG, * = average of multiple measurements, read-out: Ba/F3 EGFR-D770-N771ins_SVD IC50
In short: (§1)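 Cells were seeded overnight, then exposed for 72 hrs at 37 °C, 5% CO2 to 9 concentrations in 3.16-fold steps, 0.1% DMSO final, triplicate wells. Viability was read by CellTiter-Glo luminescence, with a T0 plate read at dosing. IC50 came from nonlinear sigmoidal dose-response fits.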

[2] = molecular target: Ba/F3 EGFR-V769_D770insASV (Homo sapiens, UniProt P00533, DUP767-769, cells depend on it); assay: Cell proliferation study (CellTiter-Glo, 72 hrs), Ba/F3 EGFR-V769_D770insASV; details: CTG, * = average of multiple measurements, read-out: Ba/F3 EGFR-V769_D770insASV IC50
In short: as §1

A431 (EGFR-WT) = assay: Cell proliferation study (CellTiter-Glo, 72 hrs), A431; details: Homo sapiens, A-431, A431 cells, CTG, * = average of multiple measurements
In short: as §1

Chain of Ba/F3 EGFR-V769_D770insASV (P00533 with tags, fused parts or gaps DUP767-769): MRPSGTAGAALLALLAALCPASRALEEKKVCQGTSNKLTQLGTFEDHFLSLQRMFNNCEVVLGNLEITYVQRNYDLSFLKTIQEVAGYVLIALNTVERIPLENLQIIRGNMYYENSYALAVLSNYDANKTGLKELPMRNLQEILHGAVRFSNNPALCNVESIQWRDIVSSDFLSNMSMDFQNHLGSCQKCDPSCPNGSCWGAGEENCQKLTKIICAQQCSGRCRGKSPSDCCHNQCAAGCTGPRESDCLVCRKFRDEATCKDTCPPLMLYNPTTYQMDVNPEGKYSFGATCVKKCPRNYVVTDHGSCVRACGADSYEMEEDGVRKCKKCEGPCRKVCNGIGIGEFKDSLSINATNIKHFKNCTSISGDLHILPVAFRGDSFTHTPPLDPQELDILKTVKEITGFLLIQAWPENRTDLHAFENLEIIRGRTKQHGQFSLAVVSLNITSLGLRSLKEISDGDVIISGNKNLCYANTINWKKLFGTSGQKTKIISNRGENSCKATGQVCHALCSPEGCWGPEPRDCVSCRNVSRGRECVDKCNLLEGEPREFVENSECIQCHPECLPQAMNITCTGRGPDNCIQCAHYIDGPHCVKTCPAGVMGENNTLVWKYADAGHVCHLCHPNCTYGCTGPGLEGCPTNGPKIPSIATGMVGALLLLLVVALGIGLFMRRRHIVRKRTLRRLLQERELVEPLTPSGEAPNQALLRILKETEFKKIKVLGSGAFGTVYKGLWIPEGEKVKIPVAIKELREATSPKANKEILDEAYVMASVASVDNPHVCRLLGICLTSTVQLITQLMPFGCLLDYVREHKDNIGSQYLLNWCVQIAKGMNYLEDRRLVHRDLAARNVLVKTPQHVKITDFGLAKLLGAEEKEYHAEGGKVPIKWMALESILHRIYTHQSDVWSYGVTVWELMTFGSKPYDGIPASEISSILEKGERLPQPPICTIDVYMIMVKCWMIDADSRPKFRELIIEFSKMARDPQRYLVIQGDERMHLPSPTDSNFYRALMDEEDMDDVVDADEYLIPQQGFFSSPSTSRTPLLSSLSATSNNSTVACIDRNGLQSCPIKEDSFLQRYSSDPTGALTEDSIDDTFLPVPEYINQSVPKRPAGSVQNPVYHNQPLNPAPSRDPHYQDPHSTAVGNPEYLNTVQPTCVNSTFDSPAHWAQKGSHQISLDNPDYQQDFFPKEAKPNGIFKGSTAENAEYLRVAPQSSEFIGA
Chain of Ba/F3 EGFR-D770-N771ins_SVD (P00533 with tags, fused parts or gaps DUP768-770): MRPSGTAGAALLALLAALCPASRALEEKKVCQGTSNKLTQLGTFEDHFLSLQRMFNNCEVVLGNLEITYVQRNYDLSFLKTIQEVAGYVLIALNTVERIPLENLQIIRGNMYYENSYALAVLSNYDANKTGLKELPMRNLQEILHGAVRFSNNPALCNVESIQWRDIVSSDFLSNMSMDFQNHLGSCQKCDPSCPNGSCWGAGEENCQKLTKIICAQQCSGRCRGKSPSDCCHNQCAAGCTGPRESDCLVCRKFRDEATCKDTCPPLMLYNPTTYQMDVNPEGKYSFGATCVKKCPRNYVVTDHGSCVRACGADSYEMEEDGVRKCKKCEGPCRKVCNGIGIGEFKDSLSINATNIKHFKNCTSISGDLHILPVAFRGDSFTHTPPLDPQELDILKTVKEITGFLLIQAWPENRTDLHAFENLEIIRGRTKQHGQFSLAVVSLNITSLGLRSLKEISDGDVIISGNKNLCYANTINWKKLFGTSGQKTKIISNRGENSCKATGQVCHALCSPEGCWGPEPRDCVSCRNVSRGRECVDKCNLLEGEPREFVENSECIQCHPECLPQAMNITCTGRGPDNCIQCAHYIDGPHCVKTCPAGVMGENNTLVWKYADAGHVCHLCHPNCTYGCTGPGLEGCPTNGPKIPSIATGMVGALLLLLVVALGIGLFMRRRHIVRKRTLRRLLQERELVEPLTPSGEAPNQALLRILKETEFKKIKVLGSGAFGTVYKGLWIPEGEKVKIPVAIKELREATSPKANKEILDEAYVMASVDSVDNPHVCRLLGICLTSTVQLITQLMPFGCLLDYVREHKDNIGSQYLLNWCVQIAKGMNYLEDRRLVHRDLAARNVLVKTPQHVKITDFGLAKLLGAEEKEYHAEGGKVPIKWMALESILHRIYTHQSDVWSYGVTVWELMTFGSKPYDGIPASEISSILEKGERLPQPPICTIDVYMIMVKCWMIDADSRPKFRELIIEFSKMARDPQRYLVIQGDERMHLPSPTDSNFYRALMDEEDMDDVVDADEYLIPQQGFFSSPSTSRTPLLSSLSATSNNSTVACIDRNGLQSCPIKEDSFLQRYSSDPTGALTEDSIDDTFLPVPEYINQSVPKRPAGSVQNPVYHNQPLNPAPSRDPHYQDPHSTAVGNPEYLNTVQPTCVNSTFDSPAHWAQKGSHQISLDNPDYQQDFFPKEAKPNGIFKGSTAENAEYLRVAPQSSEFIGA

| Structure (SMILES) | GI50 [1] [nM] | GI50 [2] [nM] | IC50 (A431 (EGFR-WT)) [nM] |
| --- | --- | --- | --- |
| C=CC(=O)Nc1cc(Nc2ncc(C(=O)OC(C)C)c(N3CC4(CCC4)c4nc(-c5cnn(C)c5)ccc43)n2)c(OC)cc1N(C)CCN(C)C [Example 10, isopropyl 2-((5-acrylamido-4-((2-(dimethylami-no)ethyl)(methyl)amino)-2-methoxy-phenyl)amino)-4-(5′-(1-methyl-1H-pyrazol-4-yl)spiro(cyclobutane-1,3′-pyrrolo[3,2-b]pyridin)-1′(2′H)-yl)pyrimidine-5-carboxylate] | 36.9 | 39.4 | 278 |
| C=CC(=O)Nc1cc(Nc2ncc(C(=O)OC(C)C)c(N3CC(C)(C)c4nc(C#CC)ccc43)n2)c(OC)cc1N1CCC[C@@H]1CN(C)C [Example 79, isopropyl (R)-2-((5-acrylamido-4-(2-((dimethyl-amino)methyl)pyrrolidin-1-yl)-2-meth-oxyphenyl)amino)-4-(3,3-dimethyl-5-(prop-1-yn-1-yl)-2,3-dihydro-1H-pyrrolo[3,2-b]pyridin-1-yl)pyrimidine-5-carboxylate] | 20.2 | 58.2 | 252 |
| C=CC(=O)Nc1cc(Nc2ncc(C(=O)OC(C)C)c(N3CC(C)(C)c4nc(-c5cnn(C)c5)ccc43)n2)c(OC)cc1N(C)CCN(C)C [Example 8, isopropyl 2-((5-acrylamido-4-((2-(dimethylami-no)ethyl)(methyl)amino)-2-methoxy-phenyl)amino)-4-(3,3-dimethyl-5-(1-methyl-1H-pyrazol-4-yl)-2,3-dihydro-1H-pyrrolo[3,2-b]pyridin-1-yl)pyrimidine-5-carboxylate] | 11 | 18.7 | 102 |
| C=CC(=O)Nc1cc(Nc2ncc(C(=O)OC(C)C)c(N3CC4(CC4)c4nc(C)ccc43)n2)c(OC)cc1N(C)C[C@@H]1CCCN1C [Example 44, isopropyl (S)-2-((5-acrylamido-2-methoxy-4-(methyl((1-methylpyrrolidin-2-yl)methyl)amino)phenyl)amino)-4-(5′-methylspiro(cyclopropane-1,3′-pyrrolo[3,2-b]pyridin)-1′(2′H)-yl)pyrimidine-5-carboxylate] | 30.4 | 76.5 | 235 |
| C=CC(=O)Nc1cc(Nc2ncc(C(=O)OC(C)C)c(N3CC4(CCC4)c4ncccc43)n2)c(OC(F)F)cc1N(C)CCN(C)C [Example 6, isopropyl 2-((5-acrylamido-2-(difluoromethoxy)-4-((2-(dimethylamino)ethyl)(methyl)ami-no)phenyl)amino)-4-(spiro(cyclo-butane-1,3′-pyrrolo[3,2-b]pyridin)-1′(2′H)-yl)pyrimidine-5-carboxylate] | 12.4 | 35.1 | 627 |
| [2H]C([2H])([2H])Oc1cc(N(CCN(C([2H])([2H])[2H])C([2H])([2H])[2H])C([2H])([2H])[2H])c(NC(=O)C=C)cc1Nc1ncc(C(=O)OC(C)C)c(N2CC(C)(C)c3nc(C)ccc32)n1 [Example 72, isopropyl 2-((5-acrylamido-4-((2-(bis(methyl-d3)amino)ethyl)(methyl-d3)amino)-2-(methoxy-d3)phenyl)amino)-4-(3,3,5-trimethyl-2,3-dihydro-1H-pyrrolo[3,2-b]pyridin-1-yl)pyrimidine-5-carboxylate] | 24.8 | 35.3 | 120 |

Second part, the compound after the results:

| GI50 [1] [nM] | GI50 [2] [nM] | IC50 (A431 (EGFR-WT)) [nM] | Structure (SMILES) |
| --- | --- | --- | --- |
| 30.2 | 37.3 | 828 | C=CC(=O)Nc1cc(Nc2ncc(C(=O)OC(C)C)c(N3CC(C)(C)c4nc(F)ccc43)n2)c(OC)cc1N(C)CCN(C)C [Example 11, isopropyl 2-((5-acrylamido-4-((2-(dimethylami-no)ethyl)(methyl)amino)-2-methoxy-phenyl)amino)-4-(5-fluoro-3,3-dimethyl-2,3-dihydro-1H-pyrrolo[3,2-b]pyridin-1-yl)pyrimidine-5-carboxylate] |
| 14.8 | 30.4 | 65.5 | [2H]C([2H])([2H])N(CCN(C)C)c1cc(OC)c(Nc2ncc(C(=O)OC(C)C)c(N3c4ccc(C)nc4C(C)(C)C3([2H])[2H])n2)cc1NC(=O)C=C [Example 71, isopropyl 2-((5-acrylamido-4-((2-(dimethylami-no)ethyl)(methyl-d3)amino)-2-methoxy-phenyl)amino)-4-(3,3,5-trimethyl-2,3-dihydro-1H-pyrrolo[3,2-b]pyridin-1-yl-2,2-d2)pyrimidine-5-carboxylate] |
| 10.7 | 18.3 | 110 | C=CC(=O)Nc1cc(Nc2ncc(C(=O)OC(C)C)c(N3CC(C)(C)c4nc(C)ccc43)n2)c(OC)cc1N1C[C@@H](F)C[C@@H]1CN(C)C [Example 63, isopropyl 2-((5-acrylamido-4-((2R,4S)-2-((dimethylamino)methyl)-4-fluoro-pyrrolidin-1-yl)-2-methoxy-phenyl)amino)-4-(3,3,5-trimethyl-2,3-dihydro-1H-pyrrolo[3,2-b]pyridin-1-yl)pyrimidine-5-carboxylate] |
| 31.3 | 24.4 | 1420 | [2H]C1([2H])N(c2nc(Nc3cc(NC(=O)C=C)c(N4CC[C@@H](N(C)C)C4)cc3OC)ncc2C(=O)OC(C)C)c2ccc(C)nc2C1(C)C [Example 49, isopropyl (R)-2-((5-acrylamido-4-(3-(dimethyl-amino)pyrrolidin-1-yl)-2-methoxy-phenyl)amino)-4-(3,3,5-trimethyl-2,3-dihydro-1H-pyrrolo[3,2-b]pyridin-1-yl-2,2-d2)pyrimidine-5-carboxylate] |
| 34.3 | 66.6 | 746 | C=CC(=O)Nc1cc(Nc2ncc(C(=O)OC(C)C)c(N3CC(C)(C)c4nc(C=C)ccc43)n2)c(OC)cc1N(C)CCN(C)C [Example 20, isopropyl 2-((5-acrylamido-4-((2-(dimethylami-no)ethyl)(methyl)amino)-2-methoxy-phenyl)amino)-4-(3,3-dimethyl-5-vinyl-2,3-dihydro-1H-pyrrolo[3,2-b]pyridin-1-yl)pyrimidine-5-carboxylate] |
| 11.7 | 32.2 | 97.2 | [2H]C([2H])([2H])N(CCN(C([2H])([2H])[2H])C([2H])([2H])[2H])c1cc(OC)c(Nc2ncc(C(=O)OC(C)C)c(N3CC(C)(C)c4nc(C)ccc43)n2)cc1NC(=O)C=C [Example 77, isopropyl 2-((5-acrylamido-4-((2-(bis(methyl-d3)amino)ethyl)(methyl-d3)amino)-2-methoxyphenyl)amino)-4-(3,3,5-tri-methyl-2,3-dihydro-1H-pyrrolo[3,2-b]pyridin-1-yl)pyrimidine-5-carboxylate] |
| 22.8 | 52 | 432 | C=CC(=O)Nc1cc(Nc2ncc(C(=O)OC(C)C)c(N3CC(C)(C)c4nc(C)ccc43)n2)c(OC)cc1NCCN(C)C [Example 55, isopropyl 2-((5-acrylamido-4-((2-(dimethylami-no)ethyl)amino)-2-methoxy-phenyl)amino)-4-(3,3,5-trimethyl-2,3-dihydro-1H-pyrrolo[3,2-b]pyridin-1-yl)pyrimidine-5-carboxylate] |
| 9.8 | 8 | 14.1 | C=CC(=O)Nc1cc(Nc2ncc(C(=O)OC(C)C)c(N3CC4(CC4)c4ncccc43)n2)c(OC)cc1N1CCC[C@@H]1CN(C)C [Example 86, isopropyl (R)-2-((5-acrylamido-4-(2-((dimethyl-amino)methyl)pyrrolidin-1-yl)-2-meth-oxyphenyl)amino)-4-(spiro(cyclopro-pane-1,3′-pyrrolo[3,2-b]pyridin)-1′(2′H)-yl)pyrimidine-5-carboxylate] |
